From US20230331731A1, “CRYSTAL FORM OF PYRROLO HETEROCYCLIC DERIVATIVE AND PREPARATION METHOD THEREFOR” (Jiangsu Hengrui Pharmaceuticals Co., Ltd., priority 2020, published 2023)

Experiments:
Type in all cases: physicochemical
[1] = DVS (dynamic vapor sorption) analysis
Description: DVS refers to dynamic vapor sorption: The measurement was conducted on SMS DVS Advantage; at 25° C., the humidity was changed as follows: 50%-95%-0%-95%-50%, in steps of 10% (5% for the last step) (specific humidity ranges are shown in corresponding graphs, and those listed here were used in most cases); the criterion was dm/dt being no greater than 0.002%.

[2] = Influencing factor stability study
[3] = Long-term/accelerated stability study
Description: 1. The hydrobromide in crystal form α was left to stand under 25° C., 60% RH conditions and 40° C., 75% RH conditions to investigate its stability.
4. The fumarate in crystal form II was subjected to 6-month long-term (25° C., 60% RH) and accelerated (40° C., 75% RH) stability studies.

[4] = 40° C., open, 30 days (5/10/30-day study)
[5] = 60° C., open, 30 days (5/10/30-day study)
[6] = 4500 Lux, open, 30 days (5/10/30-day study)
[7] = RH 75%, open, 30 days (5/10/30-day study)

Compound: Cn1nccc1Nc1nccc(-c2cc3n(c2)C(=O)N([C@H](CO)c2cccc(Cl)c2)C3)n1.O=C(O)/C=C/C(=O)O [Fumarate in crystal form II]
- moisture-absorption weight gain ([1]; accelerated conditions, 70% RH): about 2.75%
- moisture-absorption weight gain ([1]; extreme conditions, 90% RH): about 3.85%
- moisture-absorption weight gain ([1]; normal conditions, 25° C., 60% RH): about 2.38%
- crystal form after DVS analysis ([1]; re-examined after DVS): did not change
- Color and appearance ([2]; 40° C., open, 5 days): White solid
- Purity ([2]; 40° C., open, 5 days): 99.6%
- Color and appearance ([2]; 40° C., open, 10 days): White solid
- Purity ([2]; 40° C., open, 10 days): 99.5%
- Color and appearance [2, 4]: White solid
- Purity [2, 4]: 99.2%
- Color and appearance ([2]; 60° C., open, 5 days): White solid
- Purity ([2]; 60° C., open, 5 days): 99.5%
- Color and appearance ([2]; 60° C., open, 10 days): White solid
- Purity ([2]; 60° C., open, 10 days): 99.5%
- Color and appearance [2, 5]: White solid
- Purity [2, 5]: 98.0%
- Color and appearance ([2]; 4500 Lux, open, 5 days): White solid
- Purity ([2]; 4500 Lux, open, 5 days): 99.6%
- Color and appearance ([2]; 4500 Lux, open, 10 days): White solid
- Purity ([2]; 4500 Lux, open, 10 days): 99.6%
- Color and appearance [2, 6]: White solid
- Purity [2, 6]: 98.4%
- Color and appearance ([2]; Initial, 0 days (30-day study)): White solid
- Purity ([2]; Initial, 0 days (30-day study)): 99.7%
- Color and appearance ([2]; RH 75%, open, 5 days): White solid
- Purity ([2]; RH 75%, open, 5 days): 99.7%
- Weight gain ([2]; RH 75%, open, 5 days): 0.54%
- Color and appearance ([2]; RH 75%, open, 10 days): White solid
- Purity ([2]; RH 75%, open, 10 days): 99.7%
- Weight gain ([2]; RH 75%, open, 10 days): 1.03%
- Weight gain ([2]; RH 75%, open, 30 days): 1.42%
- Color and appearance [2, 7]: White solid
- Purity [2, 7]: 99.7%
- Color and appearance ([2]; RH 90%, open, 5 days): White solid
- Purity ([2]; RH 90%, open, 5 days): 99.7%
- Weight gain ([2]; RH 90%, open, 5 days): 1.16%
- Color and appearance ([2]; RH 90%, open, 10 days): White solid
- Purity ([2]; RH 90%, open, 10 days): 99.7%
- Weight gain ([2]; RH 90%, open, 10 days): 2.77%
- Color and appearance ([2]; RH 90%, open, 30 days): White solid
- Purity ([2]; RH 90%, open, 30 days): 99.7%
- Weight gain ([2]; RH 90%, open, 30 days): 3.97%
- physical and chemical stability (conclusion) ([2]; high-temperature conditions (40° C. and 60° C.) and high-humidity conditions (75% and 92.5%), 30 days): relatively good physical and chemical stability
- Purity, 1 month ([3]; 25° C., 60%RH): 99.7%
- Purity, 2 months ([3]; 25° C., 60%RH): 99.7%
- Purity, 3 months ([3]; 25° C., 60%RH): 99.7%
- Purity, 6 months ([3]; 25° C., 60%RH, 6 months): 99.7%
- Purity, 1 month ([3]; 40° C., 75%RH): 99.7%
- Purity, 2 months ([3]; 40° C., 75%RH): 99.7%
- Purity, 3 months ([3]; 40° C., 75%RH): 99.7%
- Purity, 6 months ([3]; 40° C., 75%RH, 6 months): 99.7%
- Purity, Initial ([3]; Initial): 99.7%
- physical and chemical stability (conclusion) ([3]; long-term (25° C., 60% RH) and accelerated (40° C., 75% RH) conditions, 6 months): good physical and chemical stability
